Measured values as given in article PMC6039436, “Radiobrominated benzimidazole-quinoline derivatives as Platelet-derived growth factor receptor beta (PDGFRβ) imaging probes” (Scientific Reports, 2018).
Values joined by “and” are separate entries in the source; they are usually repeats but may differ in a detail not shown here. Identical values can stand only once.

Columns and labels:
BxPC3-luc tumor = experiment: Biodistribution in BxPC3-luc tumor-bearing mice; type: in vivo, BALB/c nu/nu mice; details: i.v. co-injection, 1 h
Procedure, shortened: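 BALB/c nu/nu mice bearing subcutaneous BxPC3-luc tumours received 74 kBq each of co-injected ^77Br and ^125I tracers i.v. in saline with 10% ethanol, 1% tween-80. Sacrificed 1 h postinjection; tissues weighed and gamma-counted. Values are %ID/g.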

BxPC3-luc cells = experiment: In vitro blocking study; type: cell-based; details: inhibitor 1, 2 or 3 at 10 µM, 10 min pretreatment
Description: Blocking studies using 1, 2, and 3 were performed (Fig. 6). Pretreatment of an excess amount of 1 or 2 decreased uptakes of [^77Br]2 in BxPC3-luc cells. The uptake of [^77Br]3 was inhibited by a pretreatment using 1 or 3 in the same way.
Figure 6 In vitro blocking studies of (a) [^77Br]2 and (b) [^77Br]3 in BxPC3-luc and MCF7 cells. Data were presented as mean ± SD for three samples. Significance was determined using a one-way ANOVA followed by Dunnett’s post hoc test (^*p < 0.001, vs control [^77Br]2 or [^77Br]3).
For in vitro blocking experiment, inhibitor (1, 2, or 3 with final concentration 10 µM) in 1 mL of medium without FBS was added to wells containing 2 × 10^5 cells/well. After 10 min incubation, [^77Br]2 or [^77Br]3 (3.7 kBq/well) in 1 mL of medium without FBS was added to each well. Radioactivity and protein concentration in the cells were determined by the same method above-mentioned.

[1] = Biodistribution in ddY mice; type: in vivo; details: i.v. co-injection
Procedure, shortened: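 ddY mice got a 100 µL tail-vein injection of [^77Br]2 with [^125I]4, or [^77Br]3 with [^125I]5 (74 kBq each), in saline containing 10% ethanol and 1% tween-80. Animals were killed at 10 min, 1, 4 and 24 h; tumor-bearing mice were killed at 1 h. Resected tissues were weighed and gamma-counted with background correction, and values are %ID/g.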

COCCOc1ccc2c(c1)ncn2-c1ccc2cccc(N3CCC(NC(=O)c4cccc([77Br])c4)CC3)c2n1 [[^77Br]3, [^77Br]-N-3-bromobenzoyl-1-{2-[5-(2-methoxyethoxy)-1H-benzo[d]imidazol-1-yl]quinolin-8-yl}-piperidin-4-amine]
Radioactivity in Blood (BxPC3-luc tumor): 1.16 (0.02) %injected dose/gram of tissue
Radioactivity in Bone (BxPC3-luc tumor): 1.32 (0.08) %injected dose/gram of tissue
Radioactivity in Brain (BxPC3-luc tumor): 0.17 (0.02) %injected dose/gram of tissue
Radioactivity in BxPC3-luc tumor (BxPC3-luc tumor): 1.15 %injected dose/gram of tissue and 1.15 (0.35) %injected dose/gram of tissue
Radioactivity in Heart (BxPC3-luc tumor): 1.83 (0.04) %injected dose/gram of tissue
Radioactivity in Kidney (BxPC3-luc tumor): 5.95 (0.16) %injected dose/gram of tissue
Radioactivity in Large intestine (BxPC3-luc tumor): 5.53 (0.96) %injected dose/gram of tissue
Radioactivity in Liver (BxPC3-luc tumor): 19.82 (2.48) %injected dose/gram of tissue
Radioactivity in Lung (BxPC3-luc tumor): 3.02 (0.51) %injected dose/gram of tissue
Radioactivity in Muscle (BxPC3-luc tumor): 1.05 (0.18) %injected dose/gram of tissue
Radioactivity in Pancreas (BxPC3-luc tumor): 2.15 (0.13) %injected dose/gram of tissue
Radioactivity in Small intestine (BxPC3-luc tumor): 32.72 (3.10) %injected dose/gram of tissue
Radioactivity in Spleen (BxPC3-luc tumor): 2.51 (0.17) %injected dose/gram of tissue
Radioactivity in Stomach (BxPC3-luc tumor): 0.67 (0.14) %injected dose /organ
Uptake in BxPC3-luc cells after pretreatment with excess inhibitor (BxPC3-luc cells): inhibited
Radioactivity in Blood ([1]; 10 min): 1.68 (0.07) %injected dose/gram tissue
Radioactivity in Bone ([1]; 10 min): 1.88 (0.15) %injected dose/gram tissue
Radioactivity in Brain ([1]; 10 min): 0.43 (0.02) %injected dose/gram tissue
Radioactivity in Heart ([1]; 10 min): 2.70 (0.24) %injected dose/gram tissue
Radioactivity in Kidney ([1]; 10 min): 5.21 (0.53) %injected dose/gram tissue
Radioactivity in Large intestine ([1]; 10 min): 0.88 (0.08) %injected dose/gram tissue
Radioactivity in Liver ([1]; 10 min): 25.80 (2.54) %injected dose/gram tissue
Radioactivity in Lung ([1]; 10 min): 3.08 (0.65) %injected dose/gram tissue
Radioactivity in Muscle ([1]; 10 min): 1.28 (0.19) %injected dose/gram tissue
Radioactivity in Pancreas ([1]; 10 min): 2.61 (0.20) %injected dose/gram tissue
Radioactivity in Small intestine ([1]; 10 min): 3.28 (0.32) %injected dose/gram tissue
Radioactivity in Spleen ([1]; 10 min): 3.05 (1.14) %injected dose/gram tissue
Radioactivity in Stomach ([1]; 10 min): 1.31 (0.22) %injected dose /organ
Radioactivity in Blood ([1]; 1 h): 0.65 (0.05) %injected dose/gram tissue
Radioactivity in Bone ([1]; 1 h): 1.60 (0.27) %injected dose/gram tissue
Radioactivity in Brain ([1]; 1 h): 0.22 (0.05) %injected dose/gram tissue
Radioactivity in Heart ([1]; 1 h): 1.14 (0.09) %injected dose/gram tissue
Radioactivity in Kidney ([1]; 1 h): 2.03 (0.33) %injected dose/gram tissue
Radioactivity in Large intestine ([1]; 1 h): 2.23 (0.75) %injected dose/gram tissue
Radioactivity in Liver ([1]; 1 h): 7.59 (0.76) %injected dose/gram tissue
Radioactivity in Lung ([1]; 1 h): 1.18 (0.10) %injected dose/gram tissue
Radioactivity in Muscle ([1]; 1 h): 0.91 (0.45) %injected dose/gram tissue
Radioactivity in Pancreas ([1]; 1 h): 1.24 (0.16) %injected dose/gram tissue
Radioactivity in Small intestine ([1]; 1 h): 14.30 (0.23) %injected dose/gram tissue
Radioactivity in Spleen ([1]; 1 h): 1.47 (0.20) %injected dose/gram tissue
Radioactivity in Stomach ([1]; 1 h): 1.10 (0.24) %injected dose /organ
Radioactivity in Blood ([1]; 4 h): 0.25 (0.04) %injected dose/gram tissue
Radioactivity in Bone ([1]; 4 h): 1.32 (0.12) %injected dose/gram tissue
Radioactivity in Brain ([1]; 4 h): 0.19 (0.01) %injected dose/gram tissue
Radioactivity in Heart ([1]; 4 h): 0.65 (0.05) %injected dose/gram tissue
Radioactivity in Kidney ([1]; 4 h): 0.65 (0.15) %injected dose/gram tissue
Radioactivity in Large intestine ([1]; 4 h): 28.99 (2.21) %injected dose/gram tissue
Radioactivity in Liver ([1]; 4 h): 2.19 (1.38) %injected dose/gram tissue
Radioactivity in Lung ([1]; 4 h): 0.45 (0.07) %injected dose/gram tissue
Radioactivity in Muscle ([1]; 4 h): 0.57 (0.24) %injected dose/gram tissue
Radioactivity in Pancreas ([1]; 4 h): 0.68 (0.10) %injected dose/gram tissue
Radioactivity in Small intestine ([1]; 4 h): 4.50 (2.02) %injected dose/gram tissue
Radioactivity in Spleen ([1]; 4 h): 0.88 (0.08) %injected dose/gram tissue
Radioactivity in Stomach ([1]; 4 h): 0.59 (0.26) %injected dose /organ
Radioactivity in Blood ([1]; 24 h): 0.39 (0.05) %injected dose/gram tissue
Radioactivity in Bone ([1]; 24 h): 1.32 (0.17) %injected dose/gram tissue
Radioactivity in Brain ([1]; 24 h): 0.20 (0.02) %injected dose/gram tissue
Radioactivity in Heart ([1]; 24 h): 0.72 (0.11) %injected dose/gram tissue
Radioactivity in Kidney ([1]; 24 h): 0.37 (0.05) %injected dose/gram tissue
Radioactivity in Large intestine ([1]; 24 h): 0.18 (0.00) %injected dose/gram tissue
Radioactivity in Liver ([1]; 24 h): 0.18 (0.04) %injected dose/gram tissue
Radioactivity in Lung ([1]; 24 h): 0.56 (0.07) %injected dose/gram tissue
Radioactivity in Muscle ([1]; 24 h): 0.54 (0.04) %injected dose/gram tissue
Radioactivity in Pancreas ([1]; 24 h): 0.68 (0.03) %injected dose/gram tissue
Radioactivity in Small intestine ([1]; 24 h): 0.18 (0.05) %injected dose/gram tissue
Radioactivity in Spleen ([1]; 24 h): 0.72 (0.24) %injected dose/gram tissue
Radioactivity in Stomach ([1]; 24 h): 0.35 (0.06) %injected dose /organ
